Measurements as given in US20250101029A1, “ORGANIC COMPOUNDS” (INTRA-CELLULAR THERAPIES, INC., priority 2022, published 2025).

How the values were obtained:
Settings in all cases: qualitative statement
SERT = SERT (Homo sapiens, UniProt P31645); test: Receptor binding, SERT
D1 = D1 (Homo sapiens, UniProt P21728); test: Receptor binding, D1
D2 = D2 (Homo sapiens, UniProt P14416); test: Receptor binding, D2
Mu opiate receptor = Mu opiate receptor (Homo sapiens, UniProt P35372); test: Receptor binding, Mu opiate receptor
5-HT2A = 5-HT2A (Homo sapiens, UniProt P28223); test: Receptor binding, 5-HT2A
Chain of 5-HT2A (P28223 whole entry): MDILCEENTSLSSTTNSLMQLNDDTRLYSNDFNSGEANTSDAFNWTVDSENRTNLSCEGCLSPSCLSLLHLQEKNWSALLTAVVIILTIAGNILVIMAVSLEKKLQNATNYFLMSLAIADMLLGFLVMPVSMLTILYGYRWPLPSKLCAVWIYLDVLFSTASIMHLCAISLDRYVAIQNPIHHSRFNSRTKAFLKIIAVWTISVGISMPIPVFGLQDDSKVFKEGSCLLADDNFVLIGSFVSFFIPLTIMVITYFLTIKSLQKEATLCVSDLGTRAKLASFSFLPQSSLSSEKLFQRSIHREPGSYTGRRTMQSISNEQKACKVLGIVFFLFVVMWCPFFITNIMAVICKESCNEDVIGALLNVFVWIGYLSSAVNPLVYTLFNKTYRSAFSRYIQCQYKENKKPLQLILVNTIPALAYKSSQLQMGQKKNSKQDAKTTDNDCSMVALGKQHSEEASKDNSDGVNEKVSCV

Chain of SERT (P31645 whole entry): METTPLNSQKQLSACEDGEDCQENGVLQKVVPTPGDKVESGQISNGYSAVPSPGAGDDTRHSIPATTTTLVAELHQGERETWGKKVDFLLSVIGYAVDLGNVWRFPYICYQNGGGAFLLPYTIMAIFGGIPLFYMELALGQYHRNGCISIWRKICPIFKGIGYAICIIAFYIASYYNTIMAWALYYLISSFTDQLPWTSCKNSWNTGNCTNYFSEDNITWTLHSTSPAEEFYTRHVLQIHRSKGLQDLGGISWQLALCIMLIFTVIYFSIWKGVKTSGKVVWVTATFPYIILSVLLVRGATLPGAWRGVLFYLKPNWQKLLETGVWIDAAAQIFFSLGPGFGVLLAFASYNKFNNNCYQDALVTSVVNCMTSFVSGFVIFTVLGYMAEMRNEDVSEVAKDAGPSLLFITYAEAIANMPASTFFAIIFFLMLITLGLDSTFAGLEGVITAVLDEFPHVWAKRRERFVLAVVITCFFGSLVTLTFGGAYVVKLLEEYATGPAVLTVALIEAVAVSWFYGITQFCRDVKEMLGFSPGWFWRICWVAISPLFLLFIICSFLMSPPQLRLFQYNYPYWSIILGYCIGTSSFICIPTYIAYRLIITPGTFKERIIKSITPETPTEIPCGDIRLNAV
Chain of D1 (P21728 whole entry): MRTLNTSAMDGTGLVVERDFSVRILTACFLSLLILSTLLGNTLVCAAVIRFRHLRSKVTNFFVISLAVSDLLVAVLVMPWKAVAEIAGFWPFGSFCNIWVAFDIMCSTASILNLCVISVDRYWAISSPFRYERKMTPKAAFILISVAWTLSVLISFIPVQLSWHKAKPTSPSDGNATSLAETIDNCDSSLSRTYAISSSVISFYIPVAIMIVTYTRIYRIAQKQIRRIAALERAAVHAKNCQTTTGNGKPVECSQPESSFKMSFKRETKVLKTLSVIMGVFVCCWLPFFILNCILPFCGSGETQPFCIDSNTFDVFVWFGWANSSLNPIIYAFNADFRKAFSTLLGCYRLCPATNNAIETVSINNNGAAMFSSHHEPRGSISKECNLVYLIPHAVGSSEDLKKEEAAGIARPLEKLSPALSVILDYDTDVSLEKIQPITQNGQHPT
Chain of D2 (P14416 1-414 isoform P14416-2): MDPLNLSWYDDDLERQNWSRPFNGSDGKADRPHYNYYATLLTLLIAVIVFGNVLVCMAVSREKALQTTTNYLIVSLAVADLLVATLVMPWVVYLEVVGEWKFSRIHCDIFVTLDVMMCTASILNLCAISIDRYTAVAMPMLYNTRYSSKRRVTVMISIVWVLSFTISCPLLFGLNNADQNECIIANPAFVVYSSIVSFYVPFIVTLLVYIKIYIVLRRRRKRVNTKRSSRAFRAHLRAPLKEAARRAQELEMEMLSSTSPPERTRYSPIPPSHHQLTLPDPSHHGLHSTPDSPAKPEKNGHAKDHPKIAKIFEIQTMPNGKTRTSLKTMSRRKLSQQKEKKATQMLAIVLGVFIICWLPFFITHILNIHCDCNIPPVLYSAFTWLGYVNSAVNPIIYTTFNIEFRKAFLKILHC
Chain of Mu opiate receptor (P35372 whole entry): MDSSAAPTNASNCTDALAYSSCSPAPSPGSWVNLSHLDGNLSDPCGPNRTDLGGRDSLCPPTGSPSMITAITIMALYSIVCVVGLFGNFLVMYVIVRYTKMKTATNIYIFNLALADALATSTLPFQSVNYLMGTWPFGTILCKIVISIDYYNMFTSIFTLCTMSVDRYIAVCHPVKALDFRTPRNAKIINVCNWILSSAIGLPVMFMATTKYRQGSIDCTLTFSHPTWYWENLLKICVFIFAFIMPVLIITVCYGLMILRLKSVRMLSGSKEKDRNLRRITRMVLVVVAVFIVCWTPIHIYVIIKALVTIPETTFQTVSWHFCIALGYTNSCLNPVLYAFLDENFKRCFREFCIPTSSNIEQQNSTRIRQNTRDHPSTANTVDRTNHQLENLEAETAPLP

Row | SMILES | SERT activity, in words (SERT) | D1 receptor binding, in words (D1) | D2 receptor binding, in words (D2) | mu-opiate receptor binding, in words (Mu opiate receptor) | 5-HT2A receptor activity, in words (5-HT2A)
1 | O=C1CN2c3c(cccc3[C@@H]3CN(CCCOc4ccc(F)cc4)CC[C@@H]32)N1 [Compound A] | very little SERT binding | – | – | – | –
2 | O=C1CN2c3c(cccc3[C@@H]3CN(CCCOc4ccc(F)cc4)CC[C@H]32)N1 (racemic) [Example 1, trans-8-(3-(4-fluorophenoxy)propyl)-6b,7,8,9,10,10a-hexahydro-1H-pyrido[3′,4′:4,5]pyrrolo[1,2,3-de]quinoxalin-2(3H)-one] | no SERT activity | very strong | moderate D2 receptor binding | – | –
3 | O=C1CN2c3c(cccc3[C@H]3CN(CCCOc4ccc(F)cc4)CC[C@H]32)N1 [Compound B] | no SERT activity | moderately strong D1 receptor binding | weak D2 receptor affinity | only weak mu receptor activity | moderately strong
